Key:
Assay in all cases: relative viability (nuclei count vs DMSO), 5 days (fraction); higher = more cells survive
[1] = compound: C=CCNC1=C2C[C@@H](C)C[C@H](OC)[C@H](O)[C@@H](C)/C=C(\C)[C@H](OC(N)=O)[C@@H](OC)/C=C\C=C(/C)C(=O)NC(=CC1=O)C2=O [17-AAG] + Nc1nc2[nH]cc(CCc3ccc(C(=O)N[C@@H](CCC(=O)O)C(=O)O)cc3)c2c(=O)[nH]1 [Pemetrexed] (partner 0.2 µM)
Procedure, shortened: (§1)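 Dosing by pin tool came one day after lung cancer cell lines were seeded in 1536-well plates, using either one drug or a fixed anchor-drug dose plus five library-drug doses (not always all listed) in √10 steps. After 5 days, nuclei were counted on 4× images. Relative viability is treated-well nuclei count divided by vehicle-well nuclei count, and values are medians of duplicate plates.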

[2] = compound: C=CCNC1=C2C[C@@H](C)C[C@H](OC)[C@H](O)[C@@H](C)/C=C(\C)[C@H](OC(N)=O)[C@@H](OC)/C=C\C=C(/C)C(=O)NC(=CC1=O)C2=O [17-AAG] + O=C(c1cc(Cc2n[nH]c(=O)c3ccccc23)ccc1F)N1CCN(C(=O)C2CC2)CC1 [Olaparib] (partner 8 µM)
Procedure, shortened: as §1

[3] = compound: C=CCNC1=C2C[C@@H](C)C[C@H](OC)[C@H](O)[C@@H](C)/C=C(\C)[C@H](OC(N)=O)[C@@H](OC)/C=C\C=C(/C)C(=O)NC(=CC1=O)C2=O [17-AAG] + Cc1nc(NC(=O)N2CCC[C@H]2C(N)=O)sc1-c1ccnc(C(C)(C)C(F)(F)F)c1 [Alpelisib] (partner 2 µM)
Procedure, shortened: as §1

[4] = compound: C=CCNC1=C2C[C@@H](C)C[C@H](OC)[C@H](O)[C@@H](C)/C=C(\C)[C@H](OC(N)=O)[C@@H](OC)/C=C\C=C(/C)C(=O)NC(=CC1=O)C2=O [17-AAG] + CC(=O)c1c(C)c2cnc(Nc3ccc(N4CCNCC4)cn3)nc2n(C2CCCC2)c1=O [Palbociclib] (partner 0.5 µM)
Procedure, shortened: as §1

Cell Line | relative viability ([1]; first compound 0.00128 µM) | relative viability ([1]; first compound 0.004048 µM) | relative viability ([1]; first compound 0.0128 µM) | relative viability ([1]; first compound 0.04048 µM) | relative viability ([1]; first compound 0.128 µM) | relative viability ([2]; first compound 0.00128 µM) | relative viability ([2]; first compound 0.004048 µM) | relative viability ([2]; first compound 0.0128 µM) | relative viability ([2]; first compound 0.04048 µM) | relative viability ([2]; first compound 0.128 µM) | relative viability ([3]; first compound 0.00128 µM) | relative viability ([3]; first compound 0.004048 µM) | relative viability ([3]; first compound 0.0128 µM) | relative viability ([3]; first compound 0.04048 µM) | relative viability ([3]; first compound 0.128 µM) | relative viability ([4]; first compound 0.00128 µM) | relative viability ([4]; first compound 0.004048 µM) | relative viability ([4]; first compound 0.0128 µM) | relative viability ([4]; first compound 0.04048 µM) | relative viability ([4]; first compound 0.128 µM)
NCI-H1437 | 0.348 | 0.37 | 0.246 | 0.214 | 0.154 | 0.626 | 0.609 | 0.285 | 0.194 | 0.173 | 0.959 | 0.929 | 0.88 | 0.107 | 0.122 | 0.3 | 0.351 | 0.259 | 0.198 | 0.167
NCI-H1651 | 0.635 | 0.605 | 0.585 | 0.536 | 0.173 | 0.173 | 0.19 | 0.21 | 0.153 | 0.159 | 0.972 | 0.895 | 0.902 | 0.27 | 0.157 | 0.496 | 0.563 | 0.511 | 0.451 | 0.302
NCI-H1666 | 0.921 | 0.877 | 0.908 | 0.515 | 0.517 | 0.756 | 0.721 | 0.712 | 0.526 | 0.556 | 0.949 | 0.713 | 0.299 | 0.216 | 0.214 | 0.618 | 0.672 | 0.609 | 0.519 | 0.526
NCI-H1734 | 0.4 | 0.474 | 0.475 | 0.261 | 0.161 | 0.558 | 0.686 | 0.59 | 0.255 | 0.119 | 0.708 | 0.759 | 0.716 | 0.289 | 0.16 | 0.366 | 0.402 | 0.369 | 0.303 | 0.175
NCI-H1755 | 0.47 | 0.404 | 0.407 | 0.355 | 0.214 | 0.873 | 0.849 | 0.903 | 0.712 | 0.238 | 0.957 | 0.945 | 0.891 | 0.652 | 0.254 | 0.435 | 0.443 | 0.471 | 0.425 | 0.33
NCI-H1792 | 0.782 | 0.378 | 0.113 | 0.0425 | 0.0604 | 0.456 | 0.284 | 0.221 | 0.0633 | 0.0524 | 0.713 | 0.64 | 0.594 | 0.441 | 0.306 | 0.592 | 0.635 | 0.542 | 0.459 | 0.278
NCI-H1793 | 0.837 | 0.513 | 0.213 | 0.16 | 0.124 | 0.903 | 0.594 | 0.184 | 0.198 | 0.141 | 0.846 | 0.612 | 0.356 | 0.198 | 0.167 | 0.345 | 0.295 | 0.208 | 0.14 | 0.17
NCI-H1915 | 0.521 | 0.462 | 0.422 | 0.191 | 0.057 | 0.263 | 0.268 | 0.233 | 0.129 | 0.0621 | 1.05 | 1.06 | 1.04 | 1.02 | 0.458 | 0.533 | 0.503 | 0.471 | 0.253 | 0.0774
NCI-H1944 | 0.601 | 0.561 | 0.357 | 0.266 | 0.131 | 0.4 | 0.413 | 0.383 | 0.335 | 0.137 | 0.883 | 0.88 | 0.85 | 0.682 | 0.281 | 0.331 | 0.341 | 0.3 | 0.281 | 0.151
NCI-H1975 | 0.299 | 0.338 | 0.191 | 0.162 | 0.156 | 0.745 | 0.765 | 0.158 | 0.128 | 0.121 | 0.583 | 0.365 | 0.147 | 0.139 | 0.124 | 0.547 | 0.526 | 0.22 | 0.106 | 0.104
NCI-H1993 | 0.65 | 0.649 | 0.437 | 0.298 | 0.323 | 1.16 | 0.949 | 0.98 | 0.37 | 0.299 | 0.722 | 0.657 | 0.658 | 0.528 | 0.434 | 0.704 | 0.622 | 0.813 | 0.373 | 0.296
NCI-H2009 | 1.01 | 1.03 | 1.04 | 0.86 | 0.166 | 0.699 | 0.712 | 0.7 | 0.295 | 0.0798 | 1.13 | 1.19 | 1.13 | 0.853 | 0.366 | 0.22 | 0.254 | 0.258 | 0.203 | 0.0584
NCI-H2023 | 0.268 | 0.137 | 0.0942 | 0.0647 | 0.0873 | 0.472 | 0.163 | 0.0796 | 0.0702 | 0.0752 | 0.582 | 0.66 | 0.273 | 0.0878 | 0.0906 | 0.374 | 0.195 | 0.102 | 0.0665 | 0.0605
NCI-H2085 | 0.944 | 0.923 | 0.911 | 0.877 | 0.828 | 0.869 | 0.76 | 0.78 | 0.748 | 0.674 | 0.825 | 1 | 0.934 | 0.852 | 0.671 | 0.51 | 0.472 | 0.479 | 0.443 | 0.337
NCI-H2087 | 0.606 | 0.618 | 0.354 | 0.163 | 0.128 | 0.649 | 0.216 | 0.168 | 0.134 | 0.129 | 1.16 | 0.904 | 0.308 | 0.189 | 0.165 | 0.315 | 0.179 | 0.185 | 0.0984 | 0.108
